Measurements reported in paper PMC2900060, “Antioxidant and hepatoprotective effects of the methanol extract of the leaves of Satureja macrostema” (Pharmacognosy Magazine, 2010).
In brackets after ≈: the same amount, converted by molar mass.

Key:
[1] = Iron-chelating activity (ferrozine); settings: Fe2+-ferrozine, Table 2
Description: After 5 min incubation, the reaction was initiated by 1.0 ml of 5.0 mM ferrozine. After 10 min of equilibrium, the absorbance at 562 nm was recorded. The controls contained all reaction reagents except extracts or positive control substance. Three experiments were performed and the average result was adopted. The iron-chelating activities were calculated from the absorbance of the control (Ac) and of the sample (As) using the following equation: Inhibition(%) = Ac −As × 100 Ac

[2] = Inhibition of nitric oxide radical (sodium nitroprusside, Griess reaction); settings: concentration 50 μg/ml
Description: Nitric oxide generated from sodium nitroprusside in aqueous solution at physiological pH interacts with oxygen to produce nitrite ions, which were measured by the Griess reaction.[1213] The reaction mixture (3 ml) containing sodium nitroprusside (10 Mm) in phosphate buffered saline (PES) and SM and the reference compound in different concentrations (5, 10, 25, 50 and 100 μg) were incubated at 25°C for 150 min. In each 30 min, 0.5 ml of the incubated sample was removed and 0.5 ml of the Griess reagent (1% sulfanilamide, 0.1% naphthyl ethylene diamine dihydrochloride in 2% H3PO4) was added. The absorbance of the chromophore formed was measured at 546 nm. All the tests were performed in triplicate and the results were averaged. BHT was used as the reference compound. All the tests were performed in triplicate and the results were averaged. The percentage decrease in absorbance was calculated.[10] Quercetine was used as the standard.

[3] = Inhibition of superoxide anion radical (NBT/NADH/PMS); settings: concentration 50 μg/ml
Description: Measurement of superoxide anion scavenging activity of SM was performed based on the method described by […][11] and slightly modified. About 1 ml of nitroblue tetrazolium (NBT) solution containing 156 μM NBT which is dissolved in 1.0 ml of phosphate buffer (100 mM, pH 7.4), 1 ml of NADH solution containing 468 μM of NADH which is dissolved in 1 ml of phosphate buffer (100 mM, pH 7.4) and 0.1 ml of various concentrations of SM and the reference compounds (5, 10, 25, 50 and 100 μg) were mixed and the reaction started by adding l00 μl of phenazine methosulphate (PMS) solution containing 60 μM of PMS l00 μl of phosphate buffer (100 mM, pH 7.4). The reaction mixture was incubated at 25°C for 5 min and the absorbance at 560 nm was measured against the control samples. All the tests were performed in triplicate and the results were averaged. The percentage decrease in absorbance was calculated.[10] Quercetine was used as the standard.

[4] = Inhibition of DPPH radical; settings: concentration 100 μg/ml (table head prints mg/ml for SM)
Description: The free radical scavenging activity of the extract was analyzed by the DPPH (1,1-- diphenyl-- 2--picryl hydrazyl) assay.[10] A total of 2 ml of the test extract, at concentrations ranging from 1 μg/ml to 100 μg/ml each, was mixed with 1 ml of 0.5 mM DPPH (in methanol). The absorbance at 517 nm was taken after 30 min of incubation in the dark at room temperature. The experiment was done in triplicate. The percentage antioxidant activity was calculated as follows: %Antioxidant Activity [AA] = l00 --[ { (Abssample -- Absblank) X 100 }/Abs ml of methanol plus 2.0 ml of the extract was used as the blank while 1.0 ml of the 0.3 mM DPPH solution plus 2.0 ml of methanol was used as the negative control. Ascorbic acid was used as the reference standard.

Row | SMILES | IC50 Ion-chelating [1] | Nitric oxide scavenging [2] | Superoxide anion scavenging [3] | DPPH scavenging [4] | DPPH scavenging ([4]; listed as ascorbic acid)
1 | Cc1cc(C(C)(C)C)c(O)c(C(C)(C)C)c1 [BHT] | 46.6 mg/mL (≈ 211 mM) | – | – | – | –
2 | O=c1c(O)c(-c2ccc(O)c(O)c2)oc2cc(O)cc(O)c12 [Quercetin] | – | 93.8 ± 0.98 % | 90.87 ± 0.43 % | – | –
3 | O=C1O[C@H]([C@@H](O)CO)C(O)=C1O [Ascorbic acid] | 49.3 mg/mL (≈ 280 mM) | – | – | 97 ± 0.52 % | 97%
